Measurements: ChEMBL document CHEMBL3885861, “Open TG-GATES”

Organism: Rattus norvegicus
Assay: Open TG-GATES - Regimen: Daily Repeat
Format: toxicity, organism-based, Sprague-Dawley
Parameters: regimen Daily Repeat, gender Male, age 6 weeks
Settings: in vivo, sc, 0 mg/kg, route subcutaneous injection, dose 0 ug/Kg, dose level Control; for APTT / Bas / Eos / Fbg / Hb / Ht / Lym / MCH / MCHC / MCV / Mono / Neu / PT / Plat / RBC / Ret / WBC: tissue Blood; for KIDNEY_L / KIDNEY_R / KIDNEY_TOTAL: tissue Kidney; for LIVER: tissue Liver; for A/G / ALP / ALT / AST / BUN / CRE / Ca / Cl / DBIL / GLC / IP / K / LDH / Na / PL / RALB / TBIL / TC / TG / TP / gamma-GTP: tissue Plasma

Compound: CC(=O)O.N=C(N)NCCC[C@@H](NC(=O)[C@@H]1CCCN1C(=O)[C@@H]1CSSCCC(=O)N[C@@H](Cc2ccc(O)cc2)C(=O)N[C@@H](Cc2ccccc2)C(=O)N[C@@H](CCC(N)=O)C(=O)N[C@@H](CC(N)=O)C(=O)N1)C(=O)NCC(N)=O [DESMOPRESSIN ACETATE]
- TERMINAL_BW (72 h, time 3 day): 251.2 g
- APTT (72 h, time 3 day): 16.5 s
- Bas (72 h, time 3 day): 0%
- Eos (72 h, time 3 day): 1%
- Fbg (72 h, time 3 day): 269.4 mg/dL
- Hb (72 h, time 3 day): 13.2 g/dL
- Ht (72 h, time 3 day): 40.3%
- Lym (72 h, time 3 day): 66.8%
- MCH (72 h, time 3 day): 21.5 pg
- MCHC (72 h, time 3 day): 32.7%
- MCV (72 h, time 3 day): 65.7 fL
- Mono (72 h, time 3 day): 9.6%
- Neu (72 h, time 3 day): 22.4%
- PT (72 h, time 3 day): 11.9 s
- Plat (72 h, time 3 day): 133.8 x10_4/uL
- RBC (72 h, time 3 day): 613.4 x10_4/ul
- Ret (72 h, time 3 day): 6.9%
- WBC (72 h, time 3 day): 105.2 x10_2/uL
- KIDNEY_L (72 h, time 3 day): 1 g
- KIDNEY_R (72 h, time 3 day): 1.1 g
- KIDNEY_TOTAL (72 h, time 3 day): 2.1 g
- LIVER (72 h, time 3 day): 11.8 g
- A/G (72 h, time 3 day): 2
- ALP (72 h, time 3 day): 1258.4 IU/L
- ALT (72 h, time 3 day): 32.6 IU/L
- AST (72 h, time 3 day): 68.8 IU/L
- BUN (72 h, time 3 day): 15.6 mg/dL
- CRE (72 h, time 3 day): 0.4 mg/dL
- Ca (72 h, time 3 day): 11.2 mg/dL
- Cl (72 h, time 3 day): 104.6 meq/L
- DBIL (72 h, time 3 day): 0.01 mg/dL
- GLC (72 h, time 3 day): 185.6 mg/dL
- IP (72 h, time 3 day): 7.3 mg/dL
- K (72 h, time 3 day): 5.4 meq/L
- LDH (72 h, time 3 day): 203 IU/L
- Na (72 h, time 3 day): 136 meq/L
- PL (72 h, time 3 day): 152.2 mg/dL
- RALB (72 h, time 3 day): 3.7 g/dL
- TBIL (72 h, time 3 day): 0.034 mg/dL
- TC (72 h, time 3 day): 79.8 mg/dL
- TG (72 h, time 3 day): 119.6 mg/dL
- TP (72 h, time 3 day): 5.6 g/dL
- gamma-GTP (72 h, time 3 day): 1 IU/L
- TERMINAL_BW ([…], time 7 day): 275.2 g
- TERMINAL_BW ([…], time 14 day): 338.4 g
- TERMINAL_BW ([…], time 28 day): 413.7 g
- APTT ([…], time 7 day): 16.5 s
- Bas ([…], time 7 day): 0%
- Eos ([…], time 7 day): 1%
- Fbg ([…], time 7 day): 262.8 mg/dL
- Hb ([…], time 7 day): 13.6 g/dL
- Ht ([…], time 7 day): 41.6%
- Lym ([…], time 7 day): 68.2%
- MCH ([…], time 7 day): 21 pg
- MCHC ([…], time 7 day): 32.8%
- MCV ([…], time 7 day): 64.2 fL
- Mono ([…], time 7 day): 7.4%
- Neu ([…], time 7 day): 23.4%
- PT ([…], time 7 day): 12 s
- Plat ([…], time 7 day): 124.2 x10_4/uL
- RBC ([…], time 7 day): 648.6 x10_4/ul
- Ret ([…], time 7 day): 6.6%
- WBC ([…], time 7 day): 103.6 x10_2/uL
- APTT ([…], time 14 day): 15.5 s
- Bas ([…], time 14 day): 0%
- Eos ([…], time 14 day): 1%
- Fbg ([…], time 14 day): 263.4 mg/dL
- Hb ([…], time 14 day): 14.2 g/dL
- Ht ([…], time 14 day): 43.5%
- Lym ([…], time 14 day): 74.8%
- MCH ([…], time 14 day): 20.7 pg
- MCHC ([…], time 14 day): 32.6%
- MCV ([…], time 14 day): 63.2 fL
- Mono ([…], time 14 day): 7.8%
- Neu ([…], time 14 day): 16.8%
- PT ([…], time 14 day): 11.7 s
- Plat ([…], time 14 day): 130.6 x10_4/uL
- RBC ([…], time 14 day): 687 x10_4/ul
- Ret ([…], time 14 day): 6%
- WBC ([…], time 14 day): 122.6 x10_2/uL
- APTT ([…], time 28 day): 17.8 s
- Bas ([…], time 28 day): 0%
- Eos ([…], time 28 day): 1.6%
- Fbg ([…], time 28 day): 249.4 mg/dL
- Hb ([…], time 28 day): 15.2 g/dL
- Ht ([…], time 28 day): 46.3%
- Lym ([…], time 28 day): 77.4%
- MCH ([…], time 28 day): 19 pg
- MCHC ([…], time 28 day): 32.8%
- MCV ([…], time 28 day): 58.1 fL
- Mono ([…], time 28 day): 6.6%
- Neu ([…], time 28 day): 14.8%
- PT ([…], time 28 day): 12.3 s
- Plat ([…], time 28 day): 113 x10_4/uL
- RBC ([…], time 28 day): 797.2 x10_4/ul
- Ret ([…], time 28 day): 3.1%
- WBC ([…], time 28 day): 130.4 x10_2/uL
- KIDNEY_L ([…], time 7 day): 1.1 g
- KIDNEY_R ([…], time 7 day): 1.1 g
- KIDNEY_TOTAL ([…], time 7 day): 2.2 g
- KIDNEY_L ([…], time 14 day): 1.3 g
- KIDNEY_R ([…], time 14 day): 1.3 g
- KIDNEY_TOTAL ([…], time 14 day): 2.6 g
- KIDNEY_L ([…], time 28 day): 1.5 g
- KIDNEY_R ([…], time 28 day): 1.5 g
- KIDNEY_TOTAL ([…], time 28 day): 2.9 g
- LIVER ([…], time 7 day): 12.4 g
- LIVER ([…], time 14 day): 14.3 g
- LIVER ([…], time 28 day): 15.3 g
- A/G ([…], time 7 day): 1.9
- ALP ([…], time 7 day): 1187.4 IU/L
- ALT ([…], time 7 day): 30.2 IU/L
- AST ([…], time 7 day): 68.8 IU/L
- BUN ([…], time 7 day): 16.2 mg/dL
- CRE ([…], time 7 day): 0.4 mg/dL
- Ca ([…], time 7 day): 13.7 mg/dL
- Cl ([…], time 7 day): 99.2 meq/L
- DBIL ([…], time 7 day): 0.014 mg/dL
- GLC ([…], time 7 day): 197.2 mg/dL
- IP ([…], time 7 day): 7.4 mg/dL
- K ([…], time 7 day): 5.1 meq/L
- LDH ([…], time 7 day): 157.8 IU/L
- Na ([…], time 7 day): 130.2 meq/L
- PL ([…], time 7 day): 165 mg/dL
- RALB ([…], time 7 day): 3.6 g/dL
- TBIL ([…], time 7 day): 0.048 mg/dL
- TC ([…], time 7 day): 86.8 mg/dL
- TG ([…], time 7 day): 171 mg/dL
- TP ([…], time 7 day): 5.5 g/dL
- gamma-GTP ([…], time 7 day): 1 IU/L
- A/G ([…], time 14 day): 1.7
- ALP ([…], time 14 day): 1208.4 IU/L
- ALT ([…], time 14 day): 31 IU/L
- AST ([…], time 14 day): 67.8 IU/L
- BUN ([…], time 14 day): 16.2 mg/dL
- CRE ([…], time 14 day): 0.4 mg/dL
- Ca ([…], time 14 day): 11.1 mg/dL
- Cl ([…], time 14 day): 106.2 meq/L
- DBIL ([…], time 14 day): 0.01 mg/dL
- GLC ([…], time 14 day): 194.2 mg/dL
- IP ([…], time 14 day): 6.9 mg/dL
- K ([…], time 14 day): 5.2 meq/L
- LDH ([…], time 14 day): 149 IU/L
- Na ([…], time 14 day): 138.6 meq/L
- PL ([…], time 14 day): 166 mg/dL
- RALB ([…], time 14 day): 3.8 g/dL
- TBIL ([…], time 14 day): 0.026 mg/dL
- TC ([…], time 14 day): 91.4 mg/dL
- TG ([…], time 14 day): 136.8 mg/dL
- TP ([…], time 14 day): 6 g/dL
- gamma-GTP ([…], time 14 day): 0.8 IU/L
- A/G ([…], time 28 day): 1.5
- ALP ([…], time 28 day): 865.8 IU/L
- ALT ([…], time 28 day): 27.8 IU/L
- AST ([…], time 28 day): 67.6 IU/L
- BUN ([…], time 28 day): 14.6 mg/dL
- CRE ([…], time 28 day): 0.4 mg/dL
- Ca ([…], time 28 day): 8.9 mg/dL
- Cl ([…], time 28 day): 106 meq/L
- DBIL ([…], time 28 day): 0.01 mg/dL
- GLC ([…], time 28 day): 184.8 mg/dL
- IP ([…], time 28 day): 6.2 mg/dL
- K ([…], time 28 day): 4.9 meq/L
- LDH ([…], time 28 day): 154.2 IU/L
- Na ([…], time 28 day): 139.2 meq/L
- PL ([…], time 28 day): 126.4 mg/dL
- RALB ([…], time 28 day): 3.6 g/dL
- TBIL ([…], time 28 day): 0.038 mg/dL
- TC ([…], time 28 day): 63.6 mg/dL
- TG ([…], time 28 day): 120.6 mg/dL
- TP ([…], time 28 day): 6 g/dL
- gamma-GTP ([…], time 28 day): 0.6 IU/L
